Converted amounts (≈) assume the structure as drawn.
Tests used:
[1] = system: MRSA USA-300; assay type: cell-based, Staphylococcus aureus; conditions: for bacteriostatic or bactericidal effect in time-kill assay: 5× MIC and 10× MIC
Method: MRSA USA-300 was grown overnight in cation- adjusted Muell er-Hinton broth (CAMHB), then subcultured into fresh CAMHB and incubated aerobi cally at 37°C until reaching the logarithmic phase, corresponding to an optical density (OD₆₀₀) of 0.2. The bacterial cultures were further diluted to adjust to a final concentration of 5 × 10⁵ CFU/mL in CAMHB. P3, P5, vancomycin and linezolid, were added at concentrations of 5× and 10× MIC. A DMSO-treated […]
culture serv ed as an untreated control. The cultures were aerobically maintai ned at 37°C in shaking incubator. At specifi c sampling times, aliquots were collected, resuspended in phosphate-buffered saline (PBS) and distributed to three replicates on tryptic soy agar (TSA). After a 24-hour incubation period at 37°C, the number of colony- forming units (CFUs) was evaluated.
F i g u re S 1. Time kill results against MRSA USA 300 at 5X and 10X MIC. Compound P3 ( 38) is shown as red squares, compound P5( 40) is shown as green tri angles. Vancomycin (inverted purple triangle) is used as a b act ericidal control and linezolid (orange diamond) as a bacteriostatic control with DMSO (blue circles ) as a neg ative control. […]

[2] = system: MRSA ATCC 43300; assay: Antibacterial MIC assay, serial dilution; assay type: cell-based, Staphylococcus aureus
Method: (§1) Media and solutions were autoclaved or sterile filtered prior to use and mani pulations were carri ed out in a laminar flow hood. Antibacterial t esting was performed in polypropylene 96-well flat bottom plates. The minimal inhibitory concentration of blasticidin S (1) hydrochloride, methyl ester (3) trihydrochloride, P10 (2) tri-T FA , phenet hyl amide (4) tri -T FA , an d blastimidines M 19– 22, A, 29–32, P 37–40, and C 43–46 (salt forms as described in the te xt) were assessed against Staphylococcus aureus ΔNorA, S. aureus ATCC 6538P, methicillin-resistant S. aureus (MRSA) ATCC 43300, Enterococcus faecalis ATCC 29212, vancomycin- resistant Enterococcus, Klebsiella pneumoniae ATCC 29665, Pseudomonas aeruginosa,and Acinetobacter baumannii ATCC 17978 using serial dilutions. Doxycycline (Gold Bio) as a positive control and the vehicle as a negative control. Stock solutions of each compound were prepared at 2.56 mg/mL in 50% DMSO/water and serially diluted in 50% DMSO/water to create master plates. From the master plates, 10 μ L o f each dilution was applied to test plates using a Bravo automated liquid transfer system (Agilent).
(§2) Bacteria previously grown overnight (37 °C, 120–200 RPM), in LB broth were diluted to an OD600 of 0.05 in cation-adjusted Mueller-Hinton broth (CAMHB), grown to an OD600 of ~0.5, and diluted to an OD600 of 0.004 in CAMHB . These diluted cultures were applied to the test plates (190 μL per test well) resulting in final concentrations of the test compounds of 128–1 μg/ m L.
(§3) Growth controls (wells with inoculated media but no vehicle or test compounds) were included to assess any potential toxicity from the vehicle. Th e plates were in cubated at 37 °C for 16–18 h, except fo r VRE and E. faecalis, which w ere in cub ated at 37 °C fo r 24 h. Inh ibition was determined by measuring the optical density at 600 nm (OD60 0) with a Cytation 3 pl ate read er (BioTek). The optical density measurem ents were no rmalized to the positive and negative controls and the vehicle and growth controls were compared and found to b e indistinguishable, indicating no toxicity from […]
(§4) the vehicle used. The MIC was the lowest concentration that inhibited >90% of growth. Two biological replicates were performed in duplicate. MIC values are reported as a range from […]

[3] = system: S. aureus ATCC 6538P; assay: Antibacterial MIC assay, serial dilution; assay type: cell-based, Staphylococcus aureus
Method: as §1, §2, §3, §4

[4] = system: S. aureus ΔNorA; assay: Antibacterial MIC assay, serial dilution; assay type: cell-based, Staphylococcus aureus
Method: as §1, §2, §3, §4

[5] = system: Methicillin resistant Staphylococcus epidermidis (MRSE) ATCC 35984 NRS101; assay: Antibacterial MIC assay, serial dilution; assay type: cell-based
[6] = system: Methicillin resistant S. aureus (MRSA) USA300; assay: Antibacterial MIC assay, serial dilution; assay type: cell-based, Staphylococcus aureus
[7] = system: Vancomycin resistant E. faecalis NR-31972 (VRE); assay: Antibacterial MIC assay, serial dilution; assay type: cell-based, Enterococcus faecalis
Method: as §1, §2, §3, §4

[8] = system: Acinetobacter baumannii ATCC 17978; assay: Antibacterial MIC assay, serial dilution; assay type: cell-based; conditions: ATCC17978, range from biological replicates
Method: as §1, §2, §3, §4

[9] = system: Enterococcus faecalis ATCC 29212; assay: Antibacterial MIC assay, serial dilution; assay type: cell-based
Method: as §1, §2, §3, §4

[10] = system: Klebsiella pneumoniae ATCC 29665; assay: Antibacterial MIC assay, serial dilution; assay type: cell-based
Method: as §1, §2, §3, §4

[11] = system: Pseudomonas aeruginosa; assay: Antibacterial MIC assay, serial dilution; assay type: cell-based
Method: as §1, §2, §3, §4

[12] = system: Vancomycin resistant Enterococcus faecium NR-31909 (VRE); assay: Antibacterial MIC assay, serial dilution; assay type: cell-based
Method: as §1, §2, §3, §4

[13] = system: Escherichia coli BAA-2452; assay: Antibacterial MIC assay, serial dilution; assay type: cell-based; conditions: BAA2452, read-out: MIC Escherichia coli BAA-2452
[14] = Cytotoxicity assay (MTS/PMS); assay type: cell-based; conditions: monkey, Vero cells (monkey kidney epithelial cells); 24 h treatment, MTS/PMS, average of three biological replicates; read-out: CC50 against Vero cells
Method: The potential cytotoxic eff ect of the test compounds was investigated using Vero cells (monkey kidney epitheli al cells) following est ablished protocols.3 Briefly, Vero cells were plated into 96-well plates supplemented with Dulbecco's Modified Eagle Medium (DMEM) containing 10% fetal bovine serum (FBS). The cells were placed in a humidified 37 °C environment for incubation with 5% CO₂ for 24 h to allow proper adherence and growth. Following the incubation period, the culture medium was replaced with fresh DMEM containing serial dilutions of the test compounds, while the v ehicle alon e w as used as a negative control. The treated cells were incubated for an additional 24 h. To assess cell viability, the MTS/PMS reagent was added to each well and incubat ed for 4 h. A microplate reader (S ynergy H1, BioTek, USA) was used to m easure absorbance at 490 nm. Al l experiments wer e cond ucted usingthree biologi cal replicates .
Ta b l e S2. CC50 valuesa (µg/mL) against Vero cells […]
aValues at which the cell viability (normalized to vehicle control) was 50%. […]

What does the source list for `CN[C@H](CC(C)C)C(=O)N[C@H]1C(=O)N[C@@H](CC(N)=O)C(=O)N[C@H]2C(=O)N[C@H]3C(=O)N[C@H](C(=O)N[C@H](C(=O)O)c4cc(O)cc(O)c4-c4cc3ccc4O)[C@H](O)c3ccc(c(Cl)c3)Oc3cc2cc(c3O[C@@H]2O[C@H](CO)[C@@H](O)[C@H](O)[C@H]2O[C@H]2C[C@](C)(N)[C@H](O)[C@H](C)O2)Oc2ccc(cc2Cl)[C@H]1O` [vancomycin, reference compound]?
bacteriostatic or bactericidal effect in time-kill assay [1]: bactericidal activity; time to bactericidal activity ([1]; time-kill assay): ≤ 8 h

For `CC(=O)NC[C@H]1CN(c2ccc(N3CCOCC3)c(F)c2)C(=O)O1` [linezolid, reference compound], which “bacteriostatic or bactericidal effect in time-kill assay” value [1] is on record?
Its value is “bacteriostatic activity”.

With `CN(CC[C@H](N)CC(=O)N[C@H]1C=C[C@H](n2ccc(NC(=O)c3ccc(N)cc3)nc2=O)O[C@@H]1C(=O)O)C(=N)N` [Blastimidine C2] as the compound, how does the “Selectivity index (CC50/MIC) MRSA 43300” value ([2]; CC50 Vero cells / MIC) read?
The value was less than 0.5.

What about the MIC ([2]; Staphylococcus aureus, read-out: MIC MRSA ATCC 43300) of the same compound?
Its MIC is greater than 128 µg/mL.

And the “Selectivity index (CC50/MIC) S. aureus 6538P” value ([3]; CC50 Vero cells / MIC)?
Its value is less than 0.5.

What about the MIC ([3]; Staphylococcus aureus, ATCC 6538P / ATCC 6539P, read-out: MIC S. aureus ATCC 6539P) of the same compound?
Its MIC is greater than 128 µg/mL.

What about the “Selectivity index (CC50/MIC) S. aureus ΔNorA” value ([4]; CC50 Vero cells / MIC) of the same compound?
Its value is less than 0.5.

What about the MIC ([4]; Staphylococcus aureus, read-out: MIC S. aureus ∆NorA) of the same compound?
The MIC was greater than 128 µg/mL.

And the “Selectivity index (CC50/MIC) MRSE 35984” value ([5]; CC50 Vero cells / MIC)?
The value was less than 0.5.

What about the MIC ([5]; Staphylococcus epidermidis, read-out: MIC Methicillin resistant Staphylococcus epidermidis (MRSE) ATCC 35984 NRS101) of the same compound?
Its MIC is greater than 128 µg/mL.

And the “Selectivity index (CC50/MIC) MRSA USA300” value ([6]; CC50 Vero cells / MIC)?
The value was 0.5.

And the MIC ([6]; Staphylococcus aureus, read-out: MIC Methicillin resistant S. aureus (MRSA) USA300)?
The MIC was 128 µg/mL (≈ 236 µM).

And the “Selectivity index (CC50/MIC) VRE NR-31972” value ([7]; CC50 Vero cells / MIC)?
Its value is 0.5.

And the MIC ([7]; Enterococcus faecalis, VRE, 24 h, read-out: MIC Vancomycin resistant E. faecalis NR-31972 (VRE))?
The MIC was 128 µg/mL (≈ 236 µM).

What about the MIC [8] of the same compound?
Its MIC is greater than 128 µg/mL.

And the “Selectivity index (CC50/MIC) E. faecalis 29212” value ([9]; CC50 Vero cells / MIC)?
Its value is 1.0.

And the MIC ([9]; Enterococcus faecalis, ATCC 29112 / ATCC 29212, 24 h, read-out: MIC E. faecalis ATCC 29112)?
Its MIC is 64 µg/mL (≈ 118 µM).

What about the “Selectivity index (CC50/MIC) K. pneumoniae” value ([10]; CC50 Vero cells / MIC) of the same compound?
Its value is 1.0.

And the MIC ([10]; Klebsiella pneumoniae, ATCC29665, range from biological replicates, read-out: MIC K. pneumoniae ATCC-29665)?
Its MIC is 64 µg/mL (≈ 118 µM).

And the “Selectivity index (CC50/MIC) P. aeruginosa” value ([11]; CC50 Vero cells / MIC)?
Its value is less than 0.5.

What about the MIC ([11]; Pseudomonas aeruginosa, range from biological replicates, read-out: MIC P. aeruginosa) of the same compound?
Its MIC is greater than 128 µg/mL.

And the “Selectivity index (CC50/MIC) VRE NR-31909” value ([12]; CC50 Vero cells / MIC)?
Its value is 1.0.

What about the MIC ([12]; Enterococcus faecium, VRE, 24 h, read-out: MIC Vancomycin resistant Enterococcus faecium NR-31909 (VRE)) of the same compound?
The MIC was 64 µg/mL (≈ 118 µM).

And the MIC [13]?
The MIC was 64 µg/mL (≈ 118 µM).

What about the CC50 at 24 h [14] of the same compound?
The CC50 at 24 h was 66 µg/mL (≈ 122 µM).

— article PMC12856912, “Structure-Guided Semisynthesis of Blasticidin S–Amicetin Chimeras as Selective Ribosome Inhibitors” (Journal of the American Chemical Society, 2026)
